Where “and” joins values, the source holds several entries; their conditions need not be identical. Equal entries are not always repeated.
Columns and labels:
[1] = tested on: systemic (serum) levels of testosterone, estradiol, estrone and DHEA; assay: Systemic steroid hormone levels in rats dosed daily for 14 days; assay type: in vivo, rat; details: 100 mg/kg daily, by day 7
Procedure: Plasma samples were processed by liquid/liquid extraction using MTBE. The organic portions containing the analytes were evaporated and dried extracts were incubated at 60° C. with a dansyl chloride solution. The resulting steroid derivatives were analyzed on a Waters Xbridge™ Phenyl column by reversed-phase high-performance liquid chromatography (Agilent, Palo Alto, Calif. and Leap Technologies, Carrboro, N.C.) coupled with a tandem quadrupole mass spectrometer (Waters, Beverly, Mass.). Calibration curves for standards and QC samples for […] (Estradiol, E2) and Estrone (E1) were analyzed in parallel with the samples. Sample responses were acquired and concentrations were determined based on the calibration using Masslynx™ analysis software (Waters, Beverly, Mass.). Determination of QC statistics was performed by subtracting the endogenous concentration determined in native plasma from the total concentration found in the QC sample. No PK calculations were performed on this study. The quantifiable range of detection for E2 was 5.0 to 200.0 pg/mL. The quantifiable range of detection for E1 was 10.0 to 200.0 pg/mL. Values below the detection limit were identified as such and reported.
(§1) T, A4 and DHEA assay. Plasma samples were processed by liquid/liquid extraction using MTBE (methyl-t-butyl ether). The organic portions containing the free steroids were evaporated and the dried extracts were incubated at 60° C. with a hydroxylamine hydrochloride solution. The resulting steroid-oxime derivatives were extracted with MTBE. The organic portions containing the steroid-oxime derivatives were evaporated to dryness, reconstituted in 80/20 water/acetonitrile, and analyzed on a Waters Xbridge™ Phenyl column by reversed-phase high-performance liquid chromatography (Agilent, Palo Alto, Calif. and Leap Technologies, Carrboro, N.C.) coupled with a tandem quadrupole mass spectrometer (Waters, Beverly, Mass.). Calibration curves prepared in water and QC samples prepared in native plasma for T (4-androstene-3-one-17β-ol), A4 (4-androstene-3,17-dione), and DHEA were analyzed in parallel with the samples. Sample responses were acquired and concentrations were determined based on the calibration curve using Masslynx™ analysis software (Waters, Beverly, Mass.). Determination of QC statistics was performed by subtracting the endogenous concentration determined in native plasma from the total concentration found in the QC sample.
The quantifiable range of detection for T was 10.0 to 20000.0 pg/mL in rat (example 3) and dog (this example) samples. The quantifiable range of detection for A4 was 10.0 to 20000.0 pg/mL in rats and 20.0 to 20000.0 pg/mL in dogs. The quantifiable range of detection for DHEA was 50.0 to 200.0 pg/mL in both species. […]

[2] = Toxicity observation in the 28-day dog study; assay type: in vivo; details: dogs, 20, 60 or 200 mg/kg oral daily for 28 days
Procedure: (§2) Effects of the test compound 17α-ethynylandrostane-3α,17β-[…] on steroidogenesis in dogs in vivo. Samples were collected from male dogs (5/group) treated with 0, 20, 60 or 200 mg/kg of 17α-ethynylandrostane-3α,17β-diol before dosing on days 1, 14, and 28. The animals were dosed daily for 28 days. The samples were analyzed for testosterone (T), androstendione (A4), and dehydroepiandrosterone (DHEA). Day 1 and day 28 vehicle and 60 mg/kg samples were assayed for luteinizing hormone. The compound was administered by oral administration of a 20 mg/mL 17α-ethynylandrostane-3α,17β-diol solution made of 40% 2-hydroxypropyl-β-cyclodextrin in water.

[3] = tested on: ACTH, LH, and FSH; assay: Peptide hormone assays (ELISA) in rat plasma; assay type: in vivo; details: rats, 100 mg/kg daily for 14 days
Procedure: Peptide Hormone Assays. ELISA kits for the quantification of ACTH, LH, and FSH in rat plasma were obtained from USCN Life, Wuhan, China. All other reagents were obtained from Sigma Chemical Co, St. Louis, Mo. ELISA results were measured on an ELx800 plate reader (Bio-Tek, Winooski, Vt.). Samples were assayed for ACTH, LH, and FSH concentration by means of an ELISA assay kit according to the manufacturer's instructions. For the rat samples, although 100 μL of undiluted plasma were required for each assay, […], 100 μL (LH), or 30 μL (FSH) were used in order to obtain results in the quantifiable range of the assay. Samples from Day 14 were assayed in duplicate; samples from Day 0 and Day 7 were assayed singly due to the small sample volume available. Concentrations were calculated from an eight-point standard curve. Thirty-five μL of dog plasma was used for the LH assay.
The compound 17α-ethynylandrostane-3α,17β-diol (100 mg/kg) was administered to rats (n=5) daily for 14 days. The compound was a 20 mg/mL solution made of […] 2-hydroxypropyl-β-cyclodextrin in water. Vehicle lacking the compound was administered to control animals (n=5). By day 7 in the dosing period, systemic (serum) levels of testosterone, estradiol, estrone and DHEA had fallen by over 99% to essentially undetectable levels in the treated animals. Changes in LH, FSH and ACTH were not observed.

[4] = tested on: steroidogenesis in dogs; assay: Effects on steroidogenesis in dogs in vivo (plasma T, A4, DHEA by LC-MS/MS); set-up: species or system dog; details: for Testosterone Concentrations: male dogs
Procedure: as §2, §1
The quantifiable range of detection for T was 10.0 to 20000.0 pg/mL in rat (example 3) and dog (this example) samples. The quantifiable range of detection for A4 was 10.0 to 20000.0 pg/mL in rats and 20.0 to 20000.0 pg/mL in dogs. The quantifiable range of detection for DHEA was 50.0 to 200.0 pg/mL in both species. Values below the detection limit were identified as such.

[5] = dogs, end of 28 days of daily oral dosing, dose group not specified

Structure (SMILES): C#C[C@]1(O)CC[C@H]2[C@@H]3CCC4C[C@H](O)CC[C@]4(C)[C@H]3CC[C@@]21C (stereo partly drawn) [17α-ethynylandrostane-3α,17β-diol]
- fall of systemic (serum) level of DHEA [1]: over 99%
- fall of systemic (serum) level of estradiol [1]: over 99%
- fall of systemic (serum) level of estrone [1]: over 99%
- fall of systemic (serum) level of testosterone [1]: over 99%
- toxicity in the animals [2]: Significant toxicity was not observed
- changes in ACTH [3]: not observed
- changes in FSH [3]: not observed
- changes in LH [3]: not observed
- decrease of A4 (androstendione) level compared to vehicle control [4, 5]: about 99%
- decrease of DHEA level [4, 5]: about 90%
- decrease of T (testosterone) level compared to vehicle control [4, 5]: about 99%
- Testosterone Concentrations ([4]; 20 mg/kg oral daily, day 1 sample before dosing (baseline), individual animals A111M-A115M, 20 mg/kg): 1747.2 pg/mL and 1677.0 pg/mL and 668.6 pg/mL and 771.4 pg/mL and 2450.6 pg/mL
- Testosterone Concentrations ([4]; 20 mg/kg oral daily, day 14, individual animals A111M-A115M, 20 mg/kg): 67.8 pg/mL and 51.1 pg/mL and 344.9 pg/mL and 90.1 pg/mL and 94.4 pg/mL
- Testosterone Concentrations ([4]; 20 mg/kg oral daily, day 28, individual animals A111M-A115M, BQL = below the limit of quantitation (lower limit 10.0 pg/mL), 20 mg/kg): 19.3 pg/mL and 60.8 pg/mL and 143.8 pg/mL and 173.0 pg/mL and BQL
- Testosterone Concentrations ([4]; 60 mg/kg oral daily, day 1 sample before dosing (baseline), individual animals A121M-A125M, 60 mg/kg): 46.9 pg/mL and 711.2 pg/mL and 723.8 pg/mL and 1371.3 pg/mL and 1659.6 pg/mL
- Testosterone Concentrations ([4]; 60 mg/kg oral daily, day 14, individual animals A121M-A125M, 60 mg/kg): 173.7 pg/mL and 38.5 pg/mL and 110.4 pg/mL and 144.1 pg/mL and 338.0 pg/mL
- Testosterone Concentrations ([4]; 60 mg/kg oral daily, day 28, individual animals A121M-A125M, BQL = below the limit of quantitation (lower limit 10.0 pg/mL), 60 mg/kg): 18.9 pg/mL and BQL (4×)
- Testosterone Concentrations ([4]; 200 mg/kg oral daily, day 1 sample before dosing (baseline), individual animals A131M-A135M, 200 mg/kg): 503.3 pg/mL and 350.3 pg/mL and 1816.6 pg/mL and 1891.0 pg/mL
- Testosterone Concentrations ([4]; 200 mg/kg oral daily, day 14, individual animals A131M-A135M, BQL = below the limit of quantitation (lower limit 10.0 pg/mL), 200 mg/kg): BQL (2×) and 119.5 pg/mL and 236.6 pg/mL and 18.1 pg/mL
- Testosterone Concentrations ([4]; 200 mg/kg oral daily, day 28, individual animals A131M-A135M, BQL = below the limit of quantitation (lower limit 10.0 pg/mL), 200 mg/kg): BQL (2×) and 11.2 pg/mL and 10.2 pg/mL
